According to PubChem BioAssay (NCI):
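All cell lines were grown in 96-well plates and treated with compound for 48 hours. At the TGI there is no net growth.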

What was measured:
Experiment in all cases: NCI tumour cell line growth inhibition, 48 h
[1] = system: 786-0 renal
[2] = system: A549 NSCLC
[3] = system: ACHN renal
[4] = system: CAKI-1 renal
[5] = system: COLO 205 colon
[6] = system: EKVX NSCLC
[7] = system: HCT-116 colon
[8] = system: HL-60(TB) leukemia
[9] = system: HS 578T breast
[10] = system: HT29 colon
[11] = system: IGROV1 ovarian
[12] = system: K-562 leukemia
[13] = system: LOX IMVI melanoma
[14] = system: MALME-3M melanoma
[15] = system: MDA-MB-231 breast
[16] = system: OVCAR-8 ovarian
[17] = system: SF-268 CNS
[18] = system: SF-539 CNS
[19] = system: SNB-19 CNS
[20] = system: U251 CNS

COC(=O)c1ccccc1C1CN=NC12Cc1ccc3c(c1C2=O)CCC3 (stereo not given)
TGI [1]: > 100 µM | TGI [2]: > 100 µM | TGI [3]: > 100 µM | TGI [4]: > 100 µM | TGI [5]: > 100 µM | TGI [6]: > 100 µM | TGI [7]: > 100 µM | TGI [8]: > 100 µM | TGI [9]: > 100 µM | TGI [10]: > 100 µM | TGI [11]: > 100 µM | TGI [12]: > 100 µM | TGI [13]: > 100 µM | TGI [14]: > 100 µM | TGI [15]: > 100 µM | TGI [16]: > 100 µM | TGI [17]: > 100 µM | TGI [18]: > 100 µM | TGI [19]: > 100 µM | TGI [20]: > 100 µM

COc1ccc(-c2oc3cc(O)c(OC)c(O)c3c(=O)c2O)cc1
TGI [1]: 33.1 µM | TGI [2]: 18 µM | TGI [3]: 10.7 µM | TGI [4]: 65.3 µM | TGI [5]: > 80.6 µM | TGI [6]: > 100 µM | TGI [7]: > 66.6 µM | TGI [8]: 9.19 µM | TGI [9]: > 92.7 µM | TGI [10]: > 100 µM | TGI [11]: > 100 µM | TGI [12]: > 53.5 µM | TGI [13]: > 78.6 µM | TGI [14]: 88.2 µM | TGI [15]: > 100 µM | TGI [16]: > 75.3 µM | TGI [17]: > 77.1 µM | TGI [18]: 41.6 µM | TGI [19]: > 100 µM | TGI [20]: 30.2 µM

O=C1CC(c2ccccc2)n2c(nc3ccccc32)N1 (stereo not given)
TGI [1]: > 100 µM | TGI [2]: > 100 µM | TGI [3]: > 100 µM | TGI [4]: > 100 µM | TGI [5]: > 100 µM | TGI [6]: > 100 µM | TGI [7]: > 100 µM | TGI [8]: > 100 µM | TGI [9]: > 100 µM | TGI [10]: > 100 µM | TGI [11]: > 100 µM | TGI [12]: > 100 µM | TGI [13]: > 100 µM | TGI [14]: > 100 µM | TGI [15]: > 100 µM | TGI [16]: > 100 µM | TGI [17]: > 100 µM | TGI [18]: > 100 µM | TGI [19]: > 100 µM | TGI [20]: > 100 µM

CC(=O)NC(C)(C)C1CCC(C)CC1 (stereo not given)
TGI [1]: > 100 µM | TGI [2]: > 100 µM | TGI [3]: > 100 µM | TGI [4]: > 100 µM | TGI [5]: > 100 µM | TGI [6]: > 100 µM | TGI [7]: > 100 µM | TGI [8]: > 100 µM | TGI [9]: > 100 µM | TGI [10]: > 100 µM | TGI [11]: > 100 µM | TGI [12]: > 100 µM | TGI [13]: > 100 µM | TGI [14]: > 100 µM | TGI [15]: > 100 µM | TGI [16]: > 100 µM | TGI [17]: > 100 µM | TGI [18]: > 100 µM | TGI [19]: > 100 µM | TGI [20]: > 100 µM

O=c1c2c3c(sc2nc2n1NC=NN2)CCCC3
TGI [1]: 31.9 µM | TGI [2]: > 100 µM | TGI [3]: 30.3 µM | TGI [4]: 33.8 µM | TGI [5]: 55.3 µM | TGI [6]: 35.9 µM | TGI [7]: 32.4 µM | TGI [8]: 7.34 µM | TGI [9]: 52.7 µM | TGI [10]: 38.9 µM | TGI [11]: > 56.6 µM | TGI [12]: 6.81 µM | TGI [13]: 4.88 µM | TGI [14]: 55.3 µM | TGI [15]: 19.1 µM | TGI [16]: 58.2 µM | TGI [17]: 34.8 µM | TGI [18]: 36.9 µM | TGI [19]: > 71.5 µM | TGI [20]: 35 µM

CC1CN(CCO)CCN1c1ccccc1 (stereo not given)
TGI [1]: > 100 µM | TGI [2]: > 100 µM | TGI [3]: > 100 µM | TGI [4]: > 100 µM | TGI [5]: > 100 µM | TGI [6]: > 100 µM | TGI [7]: > 100 µM | TGI [8]: 99 µM | TGI [9]: > 100 µM | TGI [10]: > 100 µM | TGI [11]: > 100 µM | TGI [12]: > 100 µM | TGI [13]: > 100 µM | TGI [14]: > 100 µM | TGI [15]: > 100 µM | TGI [16]: > 100 µM | TGI [17]: > 100 µM | TGI [18]: > 100 µM | TGI [19]: > 100 µM | TGI [20]: > 100 µM
